Measured values taken from US9102688B2, “Sulfonaminoquinoline hepcidin antagonists” (Vifor (International) AG, priority 2011, dated 2015).
pIC50: −log10 of the molar value.

Biological target: T1, human ferroportin (Homo sapiens, UniProt Q9NP59)
T1 construct: expressed in transfected cells
T1 sequence (Q9NP59 1-571): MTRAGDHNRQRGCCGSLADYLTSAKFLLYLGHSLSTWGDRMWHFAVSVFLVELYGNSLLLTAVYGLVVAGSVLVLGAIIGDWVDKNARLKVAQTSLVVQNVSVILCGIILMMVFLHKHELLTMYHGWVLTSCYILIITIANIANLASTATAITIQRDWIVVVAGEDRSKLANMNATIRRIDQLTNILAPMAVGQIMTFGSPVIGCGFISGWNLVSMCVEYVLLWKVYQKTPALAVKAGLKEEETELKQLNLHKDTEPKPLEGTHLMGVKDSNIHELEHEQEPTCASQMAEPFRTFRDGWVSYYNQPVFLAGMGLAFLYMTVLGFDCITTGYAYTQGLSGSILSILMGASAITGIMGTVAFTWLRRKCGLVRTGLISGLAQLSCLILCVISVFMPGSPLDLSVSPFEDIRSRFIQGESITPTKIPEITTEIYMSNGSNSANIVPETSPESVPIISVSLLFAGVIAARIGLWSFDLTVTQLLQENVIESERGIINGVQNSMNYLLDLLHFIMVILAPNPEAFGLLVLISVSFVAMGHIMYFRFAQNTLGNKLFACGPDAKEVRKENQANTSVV
Assay: ferroportin internalization assay (inhibition of hepcidin-induced internalization of Fpn)
Type: cell-based
Details: MDCK-FPN-HaloTag cells, 100 nM hepcidin, overnight incubation; concentration range from 0.04 to 40 μM
Method: The hepcidin-antagonistic action of the sulfonaminoquinoline compounds of the present invention was determined by means of the “ferroportin internalization assay” described in the following.
Organic compounds of low molecular weight which counteract the biological actions of hepcidin on its receptor, the iron exporter ferroportin (Fpn), were identified on the basis of their ability to inhibit hepcidin-induced internalization of Fpn in living cells. For this purpose, a stable cell line (Madin-Darby canine kidney, MDCK) was produced which constitutively expresses human ferroportin fused recombinantly at its C terminus with a fluorescent reporter protein (HaloTag®, Promega Corp.). The internalization of Fpn was monitored by labelling these cells with fluorescent ligands (HaloTag®-TMR, tetramethylrhodamine) which join covalently on to the HaloTag reporter gene fused with the Fpn. […] Optimized image analysis algorithms were used to ascertain the cell surface and to quantify the corresponding membrane fluorescence associated with the Fpn-HaloTag fusion protein. This assay allows a quantitative image-based analysis in order to quickly evaluate compounds which can block hepcidin-induced internalization of Fpn. This assay is a direct in vitro pendant of the in vivo action mechanism proposed for medicament candidates and is therefore suitable as an initial assay with a high throughput for identifying compounds which counteract the action of hepcidin on its receptor ferroportin.
• 7,500 cells per well (MDCK-FPN-HaloTag) were transinoculated in 50 μl of DMEM medium (Dulbeccos Modified Eagle Medium with 10% foetal bovine serum (FBS), which contained 1% penicillin, 1% streptomycin and 450 μg/ml of G-418) in microtitre plates with 384 wells (384 Cell carrier plates, Perkin Elmer, cat. no. 6007430), followed by incubation overnight at 37° C./5% CO2. • The volume of the medium was reduced to 10 μl, and 10 μl of 5 μM HaloTag-TMR ligands (Promega, cat. no. G 8251) were added in DMEM medium in order to stain the Fpn-HaloTag fusion protein. • 15 min incubation at 37° C./5% CO2 • The HaloTag-TMR ligand was removed and the cells were washed with fresh DMEM medium and the volume was reduced to 20 μl of DMEM medium. • 3 μl per well of a solution of the test compound (dissolved DMSO) were added ([…]). • 7 μl of […] hepcidin (Peptides International, cat. no. PLP-4392-s, 100 μM stock solution diluted in water in DMEM medium) were added per well up to a final hepcidin concentration of 100 nM. • The cells were incubated overnight at 37° C./5% CO2. • The cells were fixed by adding paraformaldehyde (PFA, Electron Microscopy Sciences, cat. no. 15710-S) directly to the cells up to a final concentration of 4%, followed by incubation at room temperature for 15-20 minutes. • The PFA solution was removed and the cells were washed with PBS (phosphate-buffered saline solution), in each case 30 μl remaining in the plate. • 20 μl of Draq5 (Biostatus, cat. no. DR 51000) were added up to a final concentration of 2.5 μM in order to stain the cell nuclei, and the plates were sealed with a foil plate seal. • The plates were analysed with the Opera Plate Imager (Opera Confocal Plate Imager, Perkin Elmer) with 7 images per well; 440 ms exposure time per image, […] focal point height.

Row | SMILES | pIC50
1 | O=S(=O)(Nc1cccc2cccnc12)c1ccccc1 [Example 4, N-Quinolin-8-yl-benzenesulfonamide] | 5.34
2 | O=S1(=O)Nc2c(cc(C(F)(F)F)c3cccnc23)-c2ccccc21 [Example 311, 12-Trifluoromethyl-5H-6-thia-4,5-diaza-chrysene 6,6-dioxide] | 4.85
3 | COc1ccnc2c3c(ccc12)-c1cc(C(F)(F)F)ccc1S(=O)(=O)N3 [Example 109, 1-Methoxy-9-trifluoromethyl-5H-6-thia-4,5-diaza-chrysene 6,6-dioxide] | 6.01
4 | Cc1cc2c(c3ncccc13)NS(=O)(=O)c1ccccc1-2 [Example 107, 12-Methyl-5H-6-thia-4,5-diaza-chrysene 6,6-dioxide] | 6.22
5 | O=S(=O)(Nc1cc(OC(F)(F)F)cc2cccnc12)c1ccc(C(F)(F)F)nc1 [Example 232, 6-Trifluoromethyl-pyridine-3-sulfonic acid (6-trifluoromethoxy-quinolin-8-yl)-amide] | 4.90
6 | Cc1cc2c(cc1C)S(=O)(=O)Nc1c-2ccc2cccnc12 [Example 104, 8,9-Dimethyl-5H-6-thia-4,5-diaza-chrysene 6,6-dioxide] | 5.40
7 | O=S(=O)(Nc1cccc2cccnc12)c1c(Cl)cc(Cl)cc1Cl [Example 47, 2,4,6-Trichloro-N-quinolin-8-yl-benzenesulfonamide] | 6.07
8 | O=S1(=O)Nc2c(cc(C(F)(F)F)c3cccnc23)-c2cc(Cl)ccc21 [Example 312, 9-Chloro-12-trifluoromethyl-5H-6-thia-4,5-diaza-chrysene 6,6-dioxide] | 5.07
9 | O=S1(=O)Nc2c(ccc3cccnc23)-c2cc(Cl)ccc21 [Example 325, 9-Chloro-5H-6-thia-4,5-diaza-chrysene 6,6-dioxide] | 6.11
10 | N#Cc1ccc2c(c1)-c1ccc3cccnc3c1NS2(=O)=O [Example 308, 6,6-Dioxo-5,6-dihydro-6λ*6*-thia-4,5-diaza-chrysene-9-carbonitrile] | 5.55
11 | COC(=O)c1cccc(S(=O)(=O)Nc2cccc3cccnc23)c1 [Example 40, 3-(Quinolin-8-ylsulfamoyl)-benzoic acid methyl ester] | 5.85
12 | O=S(=O)(Nc1cc(F)cc2cccnc12)c1ccccc1 [Example 75, N-(6-Fluoro-quinolin-8-yl)-benzenesulfonamide] | 6.11
13 | O=S(=O)(Nc1cc(F)cc2cccnc12)c1cccnc1 [Example 96, Pyridine-3-sulfonic acid (6-fluoro-quinolin-8-yl)-amide] | 5.23
14 | Cc1cnc2c(NS(=O)(=O)c3ccc(Cl)cc3F)cccc2c1 [Example 71, 4-Chloro-2-fluoro-N-(3-methyl-quinolin-8-yl)-benzenesulfonamide] | 5.89
15 | O=S(=O)(Nc1cccc2cccnc12)c1cccc(Cl)c1Cl [Example 67, 2,3-Dichloro-N-quinolin-8-yl-benzenesulfonamide] | 5.15
16 | O=S1(=O)Nc2c(ccc3cccnc23)-c2cc(C(F)(F)F)ccc21 [Example 78, 9-Trifluoromethyl-5H-6-thia-4,5-diaza-chrysene 6,6-dioxide] | 6.89
17 | O=S(=O)(Nc1ccc(Cl)c2cccnc12)c1ccccc1 [Example 25, N-(5-Chloro-quinolin-8-yl)-benzenesulfonamide] | 5.78
18 | O=S(=O)(Nc1cccc2cccnc12)c1cccnc1 [Example 33, Pyridine-3-sulfonic acid quinolin-8-ylamide] | 5.44
19 | COc1cc2c(c3ncccc13)NS(=O)(=O)c1ccccc1-2 [Example 108, 12-Methoxy-5H-6-thia-4,5-diaza-chrysene 6,6-dioxide] | 6.00
20 | O=S(=O)(Nc1cccc2cccnc12)c1ccccc1Cl [Example 11, 2-Chloro-N-quinolin-8-yl-benzenesulfonamide] | 5.10
21 | COc1cc(NS(=O)(=O)c2ccc(Cl)cc2F)c2ncccc2c1 [Example 57, 4-Chloro-2-fluoro-N-(6-methoxy-quinolin-8-yl)-benzenesulfonamide] | 5.76
22 | Cc1ccc(S(=O)(=O)Nc2ccc(Cl)c3cccnc23)c(N)c1 [Example 79, 2-Amino-N-(5-chloro-quinolin-8-yl)-4-methyl-benzenesulfonamide] | 5.91
23 | O=S1(=O)Nc2c(cc(F)c3cccnc23)-c2ccccc21 [Example 324, 12-Fluoro-5H-6-thia-4,5-diaza-chrysene 6,6-dioxide] | 5.86

Now from value to compound:

Row | pIC50 | SMILES
24 | 5.27 | CN1C(c2ccc(F)c(C(=O)O)c2)c2ccc3cccnc3c2NS1(=O)=O (stereo not shown) [Example 424, 2-Fluoro-5-(2-methyl-3,3-dioxo-1,2,3,4-tetrahydro-3λ*6*-thia-2,4,5-triaza-phenanthren-1-yl)-benzoic acid]
25 | 5.41 | Cc1cccc2c1S(=O)(=O)Nc1c-2ccc2cccnc12 [Example 335, 7-Methyl-5H-6-thia-4,5-diaza-chrysene 6,6-dioxide]
26 | 5.79 | O=S1(=O)Nc2c(cc(Cl)c3cccnc23)-c2cc(N3CCOCC3)ccc21 [Example 509, 12-Chloro-9-morpholin-4-yl-5H-6-thia-4,5-diaza-chrysene 6,6-dioxide]
27 | 5.97 | COc1ccc(C2c3ccc4cccnc4c3NS(=O)(=O)N2C)c(OC)c1 (stereo not shown) [Example 394, 1-(2,4-Dimethoxy-phenyl)-2-methyl-1,4-dihydro-2H-3-thia-2,4,5-triaza-phenanthrene 3,3-dioxide]
28 | 5.70 | O=C(NCCN1CCCCC1)c1ccnc2c3c(ccc12)-c1ccccc1S(=O)(=O)N3 [Example 544, 6,6-Dioxo-5,6-dihydro-6λ*6*-thia-4,5-diaza-chrysene-1-carboxylic acid (2-piperidin-1-yl-ethyl)-amide]
29 | 5.56 | CN(C)CCOc1cc2c(c3ncccc13)NS(=O)(=O)c1ccccc1-2 [Example 562, [2-(6,6-Dioxo-5,6-dihydro-6λ*6*-thia-4,5-diaza-chrysen-12-yloxy)-ethyl]-dimethyl-amine]
30 | 5.32 | CNC(=O)c1ccnc2c3c(ccc12)-c1ccccc1S(=O)(=O)N3 [Example 542, 6,6-Dioxo-5,6-dihydro-6λ*6*-thia-4,5-diaza-chrysene-1-carboxylic acid methylamide]
31 | 6.44 | Cc1ccc2c(c1)S(=O)(=O)Nc1c-2ccc2cccnc12 [Example 329, 8-Methyl-5H-6-thia-4,5-diaza-chrysene 6,6-dioxide]
32 | 6.14 | CN1C(c2cccc(F)c2)c2ccc3cccnc3c2NS1(=O)=O (stereo not shown) [Example 389, 1-(3-Fluoro-phenyl)-2-methyl-1,4-dihydro-2H-3-thia-2,4,5-triaza-phenanthrene 3,3-dioxide]
33 | 5.65 | COc1ccc(C2c3ccc4cccnc4c3NS(=O)(=O)N2C)cc1 (stereo not shown) [Example 390, 1-(4-Methoxy-phenyl)-2-methyl-1,4-dihydro-2H-3-thia-2,4,5-triaza-phenanthrene 3,3-dioxide]
34 | 5.13 | CN(C)CCNC(=O)c1cc(C2c3ccc4cccnc4c3NS(=O)(=O)N2C)ccc1F (stereo not shown) [Example 429, N-(2-Dimethylamino-ethyl)-2-fluoro-5-(2-methyl-3,3-dioxo-1,2,3,4-tetrahydro-3λ*6*-thia-2,4,5-triaza-phenanthren-1-yl)-benzamide]
